One compound from article PMC7784773 (Protein Science : A Publication of the Protein Society, 2020) can be followed below.

Several values for one entry are separate records, joined by “and”; a condition that tells them apart may be missing. Equal values may be shown once.

Experiment [1] concerns the target T1, R67 dihydrofolate reductase (R67 DHFR; 4F, 5F, 6F and 7F R67 DHFR) (Escherichia coli, UniProt P00383).
T1 sequence (P00383 1-78): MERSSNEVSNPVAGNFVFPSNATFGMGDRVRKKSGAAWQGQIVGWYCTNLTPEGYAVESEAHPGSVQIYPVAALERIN
In words: […] NMR titration, peak intensity, […] fit. It counts as binding. The conditions noted are these: Kd (μM) ^a / NADP^+.

Experiment [2] addresses T1, R67 dihydrofolate reductase (R67 DHFR; 4F, 5F, 6F and 7F R67 DHFR). The experiment can be described thus: […] NMR titration, chemical shift, […] fit. It counts as binding.

With `NC(=O)c1ccc[n+]([C@@H]2O[C@H](COP(=O)(O)OP(=O)(O)OC[C@H]3O[C@@H](n4cnc5c(N)ncnc54)[C@H](OP(=O)(O)O)[C@@H]3O)[C@@H](O)[C@H]2O)c1` [NADP^+], the Kd was 360 µM and 320 µM and 380 µM in experiment [1]; 220 ± 20 µM in experiment [2].

Broadly, the Kd is the constant that tells how readily two partners part at equilibrium.
